Measured values from patent publication US11773108B2, “Indene derivatives useful in treating pain and inflammation” (TARO PHARMACEUTICALS INC., priority 2018, dated 2023).

Assay: Metabolism by human liver microsomes
Type: in vitro ADME
Settings: 10 μM, in the presence of NADPH; for Scoring: % of drug remaining after 60 minutes (PDR60): human liver microsomes 1 mg/mL protein, LC-MS/MS
Procedure: Representative compounds of the invention (i.e., test compounds) and the positive control, 7-ethoxycoumarin, were prepared as stock solutions at 10 mM in DMSO and eventually diluted to 10 μM in the test plate, with an appropriate amount of acetonitrile and tris HCl buffer. Final DMSO and acetonitrile concentrations were […] and 0.5% respectively. NADPH was prepared in tris HCl buffer to a stock of 10 mM. A frozen aliquot of liver microsomes was retrieved from the freezer (−80° C.) and thawed by placing the tube on wet ice. After thawing, the tubes were gently mixed and the required amount, transferred to tris HCl buffer. Test compounds or positive control were pre-incubated, separately, for 10 minutes, with liver microsomes (1 mg/mL protein), at 37° C., in 100 mM Tris HCl at pH 7.5. After preincubation the reaction was started by adding 1 mM NADPH (pre-equilibrated to 30° C.) and the reaction allowed to proceed for 60 minutes. At 60 minutes, a 50 μL aliquot was removed and quenched with 200 uL of acetonitrile containing a mixture of internal standards (Tolbutamide (500 ng/mL) and Telmistartan (500 ng/mL)) and vortexed then centrifuged at 4000 rpm for 10 minutes (Eppendorf 5810R). The supernatant was transferred to a 96 well plate for LC-MS/MS analysis.
An LC-MS/MS method was devised for the test compounds and the control, using a AB Sciex API 4000 system coupled to a NEXAR™ UHPLC (Shimadzu) system. Analytes were separated on a Phenomenex Kinetex C18 column (50×2.1 mm, 5 μm) using a gradient that was appropriate for each compound, at a flow rate of 1 ml/minute, utilizing a mobile phase of 0.1% formic acid in MILLI-Q™ water (A) and 0.1% formic acid in acetonitrile (B). The MS instrument was operated in positive mode (ESI+)/negative (ESI−). The multiple reaction monitoring (MRM) transition for test and control compounds was used for the LC-MS/MS analysis. MRM transitions for control compound 7-ethoxycoumarinm were Quadropole 1: 191.0, Quadropole 3:163.0, dwell time: 75 msec, using curtain gas settings of 5 V, ion-spray voltage of 5500 V, temperature of 50° C. and gas settings for nebulizer and auxiliary set to 30 and 40 psi, respectively. The interface heater was kept on. Entrance potential and collision cell exit potential were varied to tune for a specific compound.
Using a suitable LC-MS/MS method, the percentage of drug remaining at 60 minutes ([…]) was assessed by comparing the average analyte to internal standard area ratio at 60 minutes to the average analyte to internal standard area ratio at 0 time control, as a percentage, from a 5 to 10 μL sample injection.
According to the above assay, the test compounds listed in Table 7 below were active in the Human liver microsome assay at 10 μM and the % of drug remaining after 60 minutes (PDR60), in the presence of NADPH, was assessed by LC-MS/MS. Average PDR60 for the standard compound, 7-ethoxycoumarin was <=65% in the presence of NADPH. Scoring for the test compounds, in the presence of NADPH, was as follows: “A” represents a PDR60 of 81 to 100%, “B” represents a PDR60 of 61 to 80%, “C” represents a PDR60 of 31 to 60% and “D” represents a PDR60 of 0 to 30%.

SMILES | Average PDR60 (standard compound, human liver microsomes, 60 minutes) | Scoring: % of drug remaining after 60 minutes (PDR60)
CCOc1ccc2ccc(=O)oc2c1 [7-ethoxycoumarin, reference compound] | <= 65% | 
C[C@]1([C@H]2CC[C@]3(C)C(c4ccccc4)=CC[C@H]3[C@@H]2CN)Cc2cn[nH]c2C[C@@H]1CO [Ia-6, ((5R,6S)-5-((3aS,6S,7R,7aS)-7-(aminomethyl)-3a-methyl-3-phenyl-3a,4,5,6,7,7a-hexahydro-1H-inden-6-yl)-5-methyl-4,5,6,7-tetrahydro-1H-indazol-6-yl)methanol] |  | A (“A” represents a PDR60 of 81 to 100%)
C[C@]1([C@H]2CC[C@]3(C)c4[nH]ncc4C[C@H]3[C@@H]2CN)Cc2cn[nH]c2C[C@@H]1CO [Ia-7, ((5R,6S)-5-((4aS,5R,6S,8aS)-5-(aminomethyl)-8a-methyl-1,4,4a,5,6,7,8,8a-octahydroindeno[1,2-c]pyrazol-6-yl)-5-methyl-4,5,6,7-tetrahydro-1H-indazol-6-yl)methanol] |  | B (“B” represents a PDR60 of 61 to 80%)
C=C1CC[C@H]2[C@H](CN)[C@@H]([C@@]3(C)Cc4cn(-c5ccc(F)cc5)nc4C[C@@H]3CO)CC[C@]12C [Ia-13, ((5R,6S)-5-((3aS,4R,5S,7aS)-4-(aminomethyl)-7a-methyl-1-methyleneoctahydro-1H-inden-5-yl)-2-(4-fluorophenyl)-5-methyl-4,5,6,7-tetrahydro-2H-indazol-6-yl)methanol] |  | A (“A” represents a PDR60 of 81 to 100%)
C=C1CC[C@H]2[C@H](CN)[C@@H]([C@@]3(C)Cc4cnn(-c5ccc(OC)cc5)c4C[C@@H]3CO)CC[C@]12C [Ia-14, ((5R,6S)-5-((3aS,4R,5S,7aS)-4-(aminomethyl)-7a-methyl-1-methyleneoctahydro-1H-inden-5-yl)-1-(4-methoxyphenyl)-5-methyl-4,5,6,7-tetrahydro-1H-indazol-6-yl)methanol] |  | D (“D” represents a PDR60 of 0 to 30%)
C=C1CC[C@H]2[C@H](CN)[C@@H]([C@@]3(C)Cc4cn(Cc5ccc(OC)cc5)nc4C[C@@H]3CO)CC[C@]12C [Ia-17, ((5R,6S)-5-((3aS,4R,5S,7aS)-4-(aminomethyl)-7a-methyl-1-methyleneoctahydro-1H-inden-5-yl)-2-(4-methoxybenzyl)-5-methyl-4,5,6,7-tetrahydro-2H-indazol-6-yl)methanol] |  | C (“C” represents a PDR60 of 31 to 60%)
C=C1CC[C@H]2[C@H](CN)[C@@H]([C@@]3(C)Cc4cn(Cc5ccc(F)cc5)nc4C[C@@H]3CO)CC[C@]12C [Ia-19, ((5R,6S)-5-((3aS,4R,5S,7aS)-4-(aminomethyl)-7a-methyl-1-methyleneoctahydro-1H-inden-5-yl)-2-(4-fluorobenzyl)-5-methyl-4,5,6,7-tetrahydro-2H-indazol-6-yl)methanol] |  | B (“B” represents a PDR60 of 61 to 80%)
C=C1CC[C@H]2[C@H](CN)[C@@H]([C@@]3(C)Cc4cn(-c5ccc(F)c(F)c5)nc4C[C@@H]3CO)CC[C@]12C [Ia-23, ((5R,6S)-5-((3aS,4R,5S,7aS)-4-(aminomethyl)-7a-methyl-1-methyleneoctahydro-1H-inden-5-yl)-2-(3,4-difluorophenyl)-5-methyl-4,5,6,7-tetrahydro-2H-indazol-6-yl)methanol] |  | C (“C” represents a PDR60 of 31 to 60%)
C=C1CC[C@H]2[C@H](CN)[C@@H]([C@@]3(C)Cc4cn(-c5ccc(Oc6ccc(F)cc6)cc5)nc4C[C@@H]3CO)CC[C@]12C [Ia-25, ((5R,6S)-5-((3aS,4R,5S,7aS)-4-(aminomethyl)-7a-methyl-1-methyleneoctahydro-1H-inden-5-yl)-2-(4-(4-fluorophenoxy)phenyl)-5-methyl-4,5,6,7-tetrahydro-2H-indazol-6-yl)methanol] |  | B (“B” represents a PDR60 of 61 to 80%)
C=C1CC[C@H]2[C@H](CN)[C@@H]([C@@]3(C)Cc4cnn(-c5ccc(F)cn5)c4C[C@@H]3CO)CC[C@]12C [Ia-30, ((5R,6S)-5-((3aS,4R,5S,7aS)-4-(aminomethyl)-7a-methyl-1-methyleneoctahydro-1H-inden-5-yl)-1-(5-fluoropyridin-2-yl)-5-methyl-4,5,6,7-tetrahydro-1H-indazol-6-yl)methanol] |  | D (“D” represents a PDR60 of 0 to 30%)
C=C1CC[C@H]2[C@H](CN)[C@@H]([C@@]3(C)Cc4cnn(-c5ccccc5F)c4C[C@@H]3CO)CC[C@]12C [Ia-32, ((5R,6S)-5-((3aS,4R,5S,7aS)-4-(aminomethyl)-7a-methyl-1-methyleneoctahydro-1H-inden-5-yl)-1-(2-fluorophenyl)-5-methyl-4,5,6,7-tetrahydro-1H-indazol-6-yl)methanol] |  | D (“D” represents a PDR60 of 0 to 30%)
C=C1CC[C@H]2[C@H](CN)[C@@H]([C@@]3(C)Cc4cnn(-c5ccc(F)cc5F)c4C[C@@H]3CO)CC[C@]12C [Ia-34, ((5R,6S)-5-((3aS,4R,5S,7aS)-4-(aminomethyl)-7a-methyl-1-methyleneoctahydro-1H-inden-5-yl)-1-(2,4-difluorophenyl)-5-methyl-4,5,6,7-tetrahydro-1H-indazol-6-yl)methanol] |  | D (“D” represents a PDR60 of 0 to 30%)
C=C1CC[C@H]2[C@H](CN)[C@@H]([C@@]3(C)Cc4cn(C5CCC(F)(F)CC5)nc4C[C@@H]3CO)CC[C@]12C [Ia-39, ((5R,6S)-5-((3aS,4R,5S,7aS)-4-(aminomethyl)-7a-methyl-1-methyleneoctahydro-1H-inden-5-yl)-2-(4,4-difluorocyclohexyl)-5-methyl-4,5,6,7-tetrahydro-2H-indazol-6-yl)methanol] |  | A (“A” represents a PDR60 of 81 to 100%)
C=C1CC[C@H]2[C@H](CN)[C@@H]([C@@]3(C)Cc4cnn(-c5cccc(F)c5)c4C[C@@H]3CO)CC[C@]12C [Ia-40, ((5R,6S)-5-((3aS,4R,5S,7aS)-4-(aminomethyl)-7a-methyl-1-methyleneoctahydro-1H-inden-5-yl)-1-(3-fluorophenyl)-5-methyl-4,5,6,7-tetrahydro-1H-indazol-6-yl)methanol] |  | D (“D” represents a PDR60 of 0 to 30%)
COc1ccc(-n2ncc3c2C[C@H](CO)[C@@](C)([C@H]2CC[C@]4(C)[C@@H](C)CC[C@H]4[C@@H]2CN)C3)cc1 [Ia-49, ((5R,6S)-5-((1S,3aS,4S,5S,7aR)-4-(aminomethyl)-1,7a-dimethyloctahydro-1H-inden-5-yl)-1-(4-methoxyphenyl)-5-methyl-4,5,6,7-tetrahydro-1H-indazol-6-yl)methanol] |  | D (“D” represents a PDR60 of 0 to 30%)
